Experimental findings from patent publication US7402691B2, “Malononitrile compounds and their use as pesticides” (Sumitomo Chemical Company, Limited, priority 2001, dated 2008) are described below.

Each structure is given as a SMILES string. Where two headings read alike, the source gives them in different places. Where only a bound is given, the exact number is not on record here.

Common to all, as to type: in vivo
One assay deals with Musca domestica. As to the kind of experiment: Pesticidal test against Musca domestica, filter paper with sucrose bait (Test Example 6). As to the method:
Ten female adults of Musca domestics (house fly) were set free in the polyethylene cup, which was then kept covered. After 24 hours, their survival was examined to determine the mortality.

Assay [1] deals with Leptinotarsa decemlineata. As to the kind of experiment: Pesticidal test against Leptinotarsa decemlineata, eggplant leaf dip (Test Example 5). The following applies: foliar, 120 h, eggplant leaf immersed 1 minute, second-instar larvae, 5th day after release, read-out: rate of dead or moribund pests. On the procedure:
A leaf of eggplant was immersed in the test liquid, which had been prepared as described above, for 1 minute. After the test liquid treated the leaf of eggplant was dried with a paper towel, the leaf of eggplant was placed in a polyethylene cup of 3 cm in diameter. One second-instar larvae of Leptinotarsa decemlineata (Colorado potato beetle) were set free in the polyethylene cup, which was then kept covered and left in a greenhouse at 25° C. This test was done ten times for one compound. On the 5th day after the release of Leptinotarsa decemlineata, the number of dead pests and moribund pests was examined.

For a further assay, the system named is Eysarcoris lewisi. As to the kind of experiment: Pesticidal test against Eysarcoris lewisi, treated peanut seeds (Test Example 4). The following applies: 168 h, peanut seeds immersed 1 minute, adults, 7th day after release, read-out: rate of dead or moribund pests. On the procedure:
Then, 3 to 5 seeds of peanut were immersed in the test liquid, which had been prepared as described above, for 1 minute. After the test liquid treated the seeds of peanut was dried with a paper towel, a filter paper moistened with 1 ml of water was placed on a bottom of polyethylene cup and then the seeds of peanut was placed on it. Six to eight adults of Eysarcoris lewisi were set free in the polyethylene cup, which was then kept covered and left in a greenhouse at 25° C. On the 7th day after the release of Eysarcoris lewisi, the number of dead pests and moribund pests was examined.

Where [2] appears, read: 500 ppm, 0.7 ml on filter paper, ten female adults, after 24 hours, read-out: mortality.

On to `N#CC(C#N)(CCC(F)=C(F)F)Cc1ccccc1` [Compound 4, 2-benzyl-2-(3,4,4-trifluoro-3-butenyl)malononitrile], for which, in the assay with Musca domestica (setting [2]), the mortality at 500 ppm was determined as 100%.
As to `N#CC(C#N)(Cc1ccc(OC(F)(F)F)cc1)CC(F)(F)C(F)(F)F` [Compound 5, 2-(2,2,3,3,3-pentafluoropropyl)-2-(4-(trifluoromethoxy)benzyl)malononitrile], the pest or weed control at 1.6 ppm in assay [1] was more than 80%. Besides, the mortality at 500 ppm with Musca domestica (setting [2]) was 100%.
Turning to `N#CC(C#N)(CCC(F)(F)F)Cc1c(Cl)cc(C(F)(F)F)cc1Cl` [Compound 7, 2-(2,6-dichloro-4-(trifluoromethyl)benzyl)-2-(3,3,3-trifluoropropyl)malononitrile], the mortality at 500 ppm in the assay on Musca domestica (setting [2]) was 100%.
Take `N#CC(C#N)(CCC(F)(F)F)Cc1ccc(Br)cc1` [Compound 9, 2-(4-bromobenzyl)-2-(3,3,3-trifluoropropyl)malononitrile]: the pest or weed control at 100 ppm with Eysarcoris lewisi was 100%. In the assay on Musca domestica (setting [2]), the mortality at 500 ppm was found to be 100%.
In the case of `N#CC(C#N)(CCC(F)(F)C(F)(F)F)Cc1ccc(OC(F)(F)F)cc1` [Compound 10, 2-(3,3,4,4,4-pentafluorobutyl)-2-(4-(trifluoromethoxy)benzyl)malononitrile], the pest or weed control at 100 ppm in the assay on Eysarcoris lewisi turned out to be 100%. Further, the pest or weed control at 1.6 ppm in assay [1] is more than 80%. Besides, in the assay on Musca domestica (setting [2]), the mortality at 500 ppm was 100%.
With `N#CC(C#N)(CCC(F)F)Cc1ccc(C(F)(F)F)cc1` [Compound 11, 2-(3,3-difluoropropyl)-2-(4-(trifluoromethyl)benzyl)malononitrile], the pest or weed control at 100 ppm in the assay with Eysarcoris lewisi was found to be 100%. Besides, the mortality at 500 ppm with Musca domestica (setting [2]) was determined as 100%.
Consider `N#CC(C#N)(CCC(F)(F)F)Cc1ccccc1` [Compound 12, 2-benzyl-2-(3,3,3-trifluoropropyl)malononitrile], for which the mortality at 500 ppm in the assay with Musca domestica (setting [2]) amounted to 100%.
On the same count and under the same terms, in the case of `N#CC(C#N)(CCC(F)(F)F)Cc1ccc(SC(F)(F)F)cc1` [Compound 13, 2-(4-(trifluoromethylthio)benzyl)-2-(3,3,3-trifluoropropyl)malononitrile] it was 100%.
For the compound `N#CC(C#N)(CCCF)Cc1ccc(C(F)(F)F)cc1` [Compound 14, 2-(3-fluoropropyl)-2-(4-(trifluoromethyl)benzyl)malononitrile], the pest or weed control at 100 ppm with Eysarcoris lewisi worked out at 100%. The mortality at 500 ppm in the assay on Musca domestica (setting [2]) was 100%.
For `N#CC(C#N)(CCC(F)(F)F)Cc1ccc(F)cc1` [Compound 16, 2-(4-fluorobenzyl)-2-(3,3,3-trifluoropropyl)malononitrile], the mortality at 500 ppm with Musca domestica (setting [2]) stood at 100%.
The same measure, in the same setting: the result for `N#CC(C#N)(CCC(F)(F)F)Cc1ccc([N+](=O)[O-])cc1` [Compound 18, 2-(4-nitrobenzyl)-2-(3,3,3-trifluoropropyl)malononitrile] reads 100%.
In the case of `N#Cc1ccc(CC(C#N)(C#N)CCC(F)(F)F)cc1` [Compound 22, 2-(4-cyanobenzyl)-2-(3,3,3-trifluoropropyl)malononitrile], the pest or weed control at 100 ppm in the assay with Eysarcoris lewisi came to 100%. Besides, the mortality at 500 ppm with Musca domestica (setting [2]) was 100%.
Consider `N#CC(C#N)(CCC(F)(F)C(F)(F)F)Cc1ccc(Cl)cc1` [Compound 23, 2-(4-chlorobenzyl)-2-(3,3,4,4,4-pentafluorobutyl)malononitrile], for which the pest or weed control at 100 ppm with Eysarcoris lewisi is 100%. In the assay with Musca domestica (setting [2]), the mortality at 500 ppm came out at 100%.
For the compound `N#CC(C#N)(CCC(F)(F)F)Cc1ccc(I)cc1` [Compound 26, 2-(4-iodobenzyl)-2-(3,3,3-trifluoropropyl)malononitrile], in the assay on Musca domestica (setting [2]), the mortality at 500 ppm is 100%.
As to `C=Cc1ccc(CC(C#N)(C#N)CCC(F)(F)F)cc1` [Compound 27, 2-(3,3,3-trifluoropropyl)-2-(4-vinylbenzyl)malononitrile], the mortality at 500 ppm in the assay on Musca domestica (setting [2]) is 100%.
On the same count and under the same terms, in the case of `CCc1ccc(CC(C#N)(C#N)CCC(F)(F)F)cc1` [Compound 31, 2-(4-ethylbenzyl)-2-(3,3,3-trifluoropropyl)malononitrile] it was 100%; in that of `CC(C)(C)c1ccc(CC(C#N)(C#N)CCC(F)(F)F)cc1` [Compound 33, 2-(4-t-butylbenzyl)-2-(3,3,3-trifluoropropyl)malononitrile], 100%; in that of `CC(C)c1ccc(CC(C#N)(C#N)CCC(F)(F)F)cc1` [Compound 35, 2-(4-isopropylbenzyl)-2-(3,3,3-trifluoropropyl)malononitrile], 100%.
As to `N#CC(C#N)(CCC(F)(F)F)Cc1ccc(C(F)(F)F)c(Cl)c1` [Compound 39, 2-(3-chloro-4-(trifluoromethyl)benzyl)-2-(3,3,3-trifluoropropyl)malononitrile], the pest or weed control at 100 ppm in the assay with Eysarcoris lewisi was determined as 100%. In addition, the mortality at 500 ppm in the assay with Musca domestica (setting [2]) was found to be 100%.
Take `CC(c1ccc(Cl)cc1)C(C#N)(C#N)CCC(F)(F)F` (stereo not drawn) [Compound 42, 2-(1-(4-chlorophenyl)ethyl)-2-(3,3,3-trifluoropropyl)malononitrile]: in the assay with Musca domestica (setting [2]), the mortality at 500 ppm stood at 100%.
As to `N#CC(C#N)(CCC(F)(F)F)Cc1ccc(F)cc1Cl` [Compound 44, 2-(2-chloro-4-fluorobenzyl)-2-(3,3,3-trifluoropropyl)malononitrile], in the assay on Musca domestica (setting [2]), the mortality at 500 ppm was determined as 100%.
For the compound `Cc1cc(CC(C#N)(C#N)CCC(F)(F)F)ccc1[N+](=O)[O-]` [Compound 45, 2-(3-methyl-4-nitrobenzyl)-2-(3,3,3-trifluoropropyl)malononitrile], in the assay on Musca domestica (setting [2]), the mortality at 500 ppm was 100%.
On the same count and under the same terms, in the case of `N#Cc1ccc(CC(C#N)(C#N)CCF)cc1` [Compound 46, 2-(4-cyanobenzyl)-2-(2-fluoroethyl)malononitrile] it was 100%; in that of `N#CC(C#N)(CCC(F)=C(F)F)Cc1ccc(OC(F)(F)F)cc1` [Compound 49, 2-(3,4,4-trifluoro-3-butenyl)-2-(4-(trifluoromethoxy)benzyl)malononitrile], 100%.
`N#CC(C#N)(CCC(F)(F)F)Cc1ccc(OC(F)(F)F)cc1` [Compound 50, 2-(3,3,3-trifluoropropyl)-2-(4-(trifluoromethoxy)benzyl)malononitrile]: the pest or weed control at 100 ppm in the assay on Eysarcoris lewisi was 100%. Besides, the pest or weed control at 1.6 ppm in assay [1] was more than 80%. Also, the mortality at 500 ppm with Musca domestica (setting [2]) came to 100%.
For `CC(c1ccc(Cl)cc1)C(C#N)(C#N)CCF` (stereo not drawn) [Compound 53, 2-(1-(4-chlorophenyl)ethyl)-2-(2-fluoroethyl)malononitrile], the mortality at 500 ppm in the assay on Musca domestica (setting [2]) was 100%.
On the same count and under the same terms, in the case of `N#CC(C#N)(CCC(F)=C(F)F)Cc1ccc(SC(F)(F)F)cc1` [Compound 54, 2-(3,4,4-trifluoro-3-butenyl)-2-(4-(trifluoromethylthio)benzyl)malononitrile] it was 100%.
With `N#CC(C#N)(CCF)Cc1ccc(F)cc1` [Compound 59, 2-(4-fluorobenzyl)-2-(2-fluoroethyl)malononitrile], the mortality at 500 ppm in the assay on Musca domestica (setting [2]) stood at 100%.
On the same count and under the same terms, in the case of `N#CC(C#N)(CCC(F)(F)F)Cc1cc(F)cc(F)c1` [Compound 71, 2-(3,5-difluorobenzyl)-2-(3,3,3-trifluoropropyl)malononitrile] it was 100%; in that of `N#CC(C#N)(Cc1ccc(C(F)(F)F)cc1)CC(F)(F)F` [Compound 72, 2-(2,2,2-trifluoroethyl)-2-(4-(trifluoromethyl)benzyl)malononitrile], 100%; in that of `N#CC(C#N)(CCC(F)=C(F)F)Cc1ccc(C(F)(F)F)cc1` [Compound 73, 2-(3,4,4-trifluoro-3-butenyl)-2-(4-(trifluoromethyl)benzyl)malononitrile], 100%.
In the case of `N#CC(C#N)(CCC(F)(F)F)Cc1ccc(C(F)(F)F)cc1` [Compound 74, 2-(3,3,3-trifluoropropyl)-2-(4-(trifluoromethyl)benzyl)malononitrile], in the assay on Eysarcoris lewisi, the pest or weed control at 100 ppm turned out to be 100%. Besides, in assay [1], the pest or weed control at 1.6 ppm was more than 80%. For the same compound, the mortality at 500 ppm in the assay on Musca domestica (setting [2]) is 100%.
As for `N#CC(C#N)(Cc1ccc(C(F)(F)F)cc1)CC(F)(F)C(F)(F)F` [Compound 76, 2-(2,2,3,3,3-pentafluoropropyl)-2-(4-(trifluoromethyl)benzyl)malononitrile], the pest or weed control at 100 ppm in the assay on Eysarcoris lewisi is 100%. The pest or weed control at 1.6 ppm in assay [1] was more than 80%. Besides, the mortality at 500 ppm in the assay on Musca domestica (setting [2]) was 100%.
On to `N#CC(C#N)(Cc1ccc(C(F)(F)F)cc1)CC(F)(F)C(F)(F)C(F)(F)F` [Compound 77, 2-(2,2,3,3,4,4,4-heptafluorobutyl)-2-(4-(trifluoromethyl)benzyl)malononitrile], for which, in the assay on Musca domestica (24 h), the mortality at 500 ppm stood at 100%.
Consider `N#CC(C#N)(CCCC(F)(F)F)Cc1ccc(C(F)(F)F)cc1` [Compound 78, 2-(4,4,4-trifluorobutyl)-2-(4-(trifluoromethyl)benzyl)malononitrile], for which the pest or weed control at 1.6 ppm in assay [1] was more than 80%. For the same compound, the mortality at 500 ppm in the assay on Musca domestica (setting [2]) amounted to 100%.
For `N#CC(C#N)(CCC(F)(F)F)Cc1cccc(F)c1` [Compound 79, 2-(3-fluorobenzyl)-2-(3,3,3-trifluoropropyl)malononitrile], in the assay with Musca domestica (setting [2]), the mortality at 500 ppm worked out at 100%.
The same measure, in the same setting: the result for `N#CC(C#N)(CCC(F)(F)F)Cc1cccc(OCc2ccccc2)c1` [Compound 88, 2-(3-(benzyloxy)benzyl)-2-(3,3,3-trifluoropropyl)malononitrile] reads 100%.
Take `COc1ccc(CC(C#N)(C#N)CCC(F)(F)F)cc1` [Compound 89, 2-(4-methoxybenzyl)-2-(3,3,3-trifluoropropyl)malononitrile]: the mortality at 500 ppm in the assay on Musca domestica (setting [2]) was 100%.
